The record followed here is PMC11984388, “A brain-accessible peptide modulates stroke inflammatory response and neurotoxicity by targeting BDNF-receptor TrkB-T1 specific interactome” (Theranostics, 2025).

In the assay the test system is Bio-sTT1Ct-interacting proteins of primary cortical cultures. As to the kind of experiment: Pull-down with biotinylated peptide and label-free proteomics. To be noted: pull-down from neuronal-enriched cortical cultures; did not pass the selection criteria. The assay is classed as binding, Rattus norvegicus. How it is done: Cultures incubated with biotinylated peptides and treated as indicated were lysed at 4°C in NP-40 lysis buffer. Equal protein amounts were combined with streptavidin-agarose beads and incubated for 1.5 h for specifically-bounded protein isolation. Peptides and their interacting proteins were released by incubation at 50°C for 40 min in RIPA modified buffer. Peptide-interacting proteins were collected and subjected to LC-ESI-MS/MS (HR, medium gradient) protein identification using a mass spectrometer (Orbitrap Exploris 240) and Proteome Discoverer software for analysis (CNB Proteomics Facility, CSIC). Further procedure details are provided as Supplementary material.
Cultures were incubated with Bio-TMyc or Bio-sTT1Ct (30 min) before treatment with BDNF (100 ng/ml) or NMDA (100 µM) for 30 additional minutes, or left untreated (Figure 2A). […] Then, proteins interacting with Bio-TMyc and Bio-sTT1Ct were identified by a label free proteomic assay, obtaining a total of 4697 proteins for the three different biological conditions and four independent experiments analyzed. […] Therefore, we evaluated by a Principal Component Analysis (PCA) whether the interactome profiles obtained were different for both peptides (Figure 2B). […]
[…]

Residues, ends and D or L forms follow the SMILES beside them. *: point of attachment. Biotin = O=C1N[C@H]2[C@H](CS[C@H]2CCCCC(=O)*)N1

For `CC[C@H](C)[C@H](NC(=O)[C@H](CCCCN)NC(=O)[C@H](Cc1c[nH]cn1)NC(=O)[C@H](Cc1ccccc1)NC(=O)[C@H](CC(C)C)NC(=O)[C@@H](NC(=O)[C@H](Cc1ccccc1)NC(=O)[C@H](CCCNC(=N)N)NC(=O)[C@H](CCCNC(=N)N)NC(=O)[C@H](CCCNC(=N)N)NC(=O)[C@H](CCC(N)=O)NC(=O)[C@H](CCCNC(=N)N)NC(=O)[C@H](CCCNC(=N)N)NC(=O)[C@H](CCCCN)NC(=O)[C@H](CCCCN)NC(=O)[C@H](CCCNC(=N)N)NC(=O)CNC(=O)[C@H](Cc1ccc(O)cc1)NC(=O)CCCC[C@@H]1SC[C@@H]2NC(=O)N[C@@H]21)C(C)C)C(=O)N1CCC[C@H]1C(=O)N[C@@H](CC(C)C)C(=O)N[C@@H](CC(=O)O)C(=O)NCC(N)=O` [Bio-sTT1Ct] (Biotin-YGRKKRRQRRRFVLFHKIPLDG-NH2), the “Binding of RhoGDI (Arhgdia) to the peptide” value is “very low binding”.
